Test results taken from patent US9113629B2, “4-amino-6-(4-substituted-phenyl)-picolinates and 6-amino-2-(4-substituted-phenyl)-pyrimidine-4-carboxylates and their use as herbicides” (DOW AGROSCIENCES LLC, priority 2013, dated 2015).
Where two headings read alike, the source gives them in different places.

How the values were obtained:
[1] = tested on: Key Broadleaf Weed and Crop Species; test: Post-emergent Test II herbicidal activity (Table 5); type: in vivo; details: post-emergence, 336 h, post-emergent, 14 days after application; for pest or weed control at 70 g/ha: 70 g ai/ha; for pest or weed control at 140 g/ha: 140 g ai/ha
Summary of the method: (§1)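 Post-emergence foliar spray, 187 L/ha, track sprayer at 43 cm above canopy. Carrier: acetone/water/IPA/DMSO/Atplus 411F/Triton X-155. Plants at 1st–2nd true leaf; subirrigated afterwards; % injury scored visually at 14 d.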

[2] = tested on: Key Grass and Sedge Weeds as well as Grass Crops; test: Post-emergent Test II herbicidal activity (Table 6); type: in vivo; details: post-emergence, 336 h; for pest or weed control at 70 g/ha: application rate 70 g ai/ha; for pest or weed control at 140 g/ha: application rate 140 g ai/ha
Summary of the method: as §1

[3] = ABUTH: velvetleaf (Abutilon theophrasti), read-out: Visual Growth Reduction (%) 14 Days After Application ABUTH
[4] = AMARE: redroot pigweed (Amaranthus retroflexus), read-out: Visual Growth Reduction (%) 14 Days After Application AMARE
[5] = BRSNN: oilseed-rape, canola (Brassica napus), read-out: Visual Growth Reduction (%) 14 Days After Application BRSNN
[6] = CHEAL: lambsquarters (Chenopodium album), read-out: Visual Growth Reduction (%) 14 Days After Application CHEAL
[7] = EPHHL: wild poinsettia (Euphorbia heterophylla), read-out: Visual Growth Reduction (%) 14 Days After Application EPHHL
[8] = HELAN: sunflower (Helianthus annuus), read-out: Visual Growth Reduction (%) 14 Days After Application HELAN
[9] = VIOTR: wild pansy (Viola tricolor), read-out: Visual Growth Reduction (%) 14 Days After Application VIOTR
[10] = CYPES: yellow nutsedge (Cyperus esculentus), read-out: Visual Growth Reduction (%) 14 Days After Application, CYPES
[11] = DIGSA: crabgrass (Digitaria sanguinalis), read-out: Visual Growth Reduction (%) 14 Days After Application, DIGSA
[12] = ECHCG: barnyardgrass (Echinochloa crus-galli), read-out: Visual Growth Reduction (%) 14 Days After Application, ECHCG
[13] = ORYSA: rice (Oryza sativa), read-out: Visual Growth Reduction (%) 14 Days After Application, ORYSA
[14] = SETFA: giant foxtail (Setaria faberi), read-out: Visual Growth Reduction (%) 14 Days After Application, SETFA
[15] = SORVU: grain sorghum (Sorghum vulgare), read-out: Visual Growth Reduction (%) 14 Days After Application, SORVU
[16] = TRZSS (wheat, Triticum aestivum), read-out: Visual Growth Reduction (%) 14 Days After Application, TRZSS
[17] = ZEAMX: maize, corn (Zea mays), read-out: Visual Growth Reduction (%) 14 Days After Application, ZEAMX

Structure (SMILES)	pest or weed control at 70 g/ha [1, 3]	pest or weed control at 140 g/ha [1, 3]	pest or weed control at 70 g/ha [1, 4]	pest or weed control at 140 g/ha [1, 4]	pest or weed control at 70 g/ha [1, 5]	pest or weed control at 140 g/ha [1, 5]	pest or weed control at 70 g/ha [1, 6]	pest or weed control at 140 g/ha [1, 6]	pest or weed control at 70 g/ha [1, 7]	pest or weed control at 140 g/ha [1, 7]	pest or weed control at 70 g/ha [1, 8]	pest or weed control at 140 g/ha [1, 8]	pest or weed control at 70 g/ha [1, 9]	pest or weed control at 140 g/ha [1, 9]	melting point	pest or weed control at 70 g/ha [2, 10]	pest or weed control at 140 g/ha [2, 10]	pest or weed control at 70 g/ha [2, 11]	pest or weed control at 140 g/ha [2, 11]	pest or weed control at 70 g/ha [2, 12]	other results
COC(=O)c1nc(-c2cc(F)c(OC(F)F)cc2F)cc(N)c1Cl [Compound 177]	85 to 94%	85 to 94%	75 to 84%	85 to 94%	30 to 44%	75 to 84%	75 to 84%	85 to 94%	95 to 100%	95 to 100%	30 to 44%	0 to 29%	0 to 29%	0 to 29%	107.5 to 110.3 °C	45 to 59%	45 to 59%	0 to 29%	0 to 29%	0 to 29%	pest or weed control at 140 g/ha [2, 12]: 60 to 74%; pest or weed control at 70 g/ha [2, 13]: 0 to 29%; pest or weed control at 140 g/ha [2, 13]: 0 to 29%; pest or weed control at 70 g/ha [2, 14]: 30 to 44%; pest or weed control at 140 g/ha [2, 14]: 45 to 59%; pest or weed control at 70 g/ha [2, 15]: 0 to 29%; pest or weed control at 140 g/ha [2, 15]: 45 to 59%; pest or weed control at 70 g/ha [2, 16]: 30 to 44%; pest or weed control at 140 g/ha [2, 16]: 30 to 44%; pest or weed control at 70 g/ha [2, 17]: 0 to 29%; pest or weed control at 140 g/ha [2, 17]: 0 to 29%
COC(=O)c1nc(-c2c(F)cc(I)c(F)c2F)cc(N)c1Cl [Compound 90]	85 to 94%	85 to 94%	95 to 100%	95 to 100%	95 to 100%	95 to 100%	95 to 100%	95 to 100%	95 to 100%	95 to 100%	30 to 44%	75 to 84%	95 to 100%	95 to 100%	176.2 to 178.7 °C	95 to 100%	95 to 100%	85 to 94%	75 to 84%	85 to 94%	pest or weed control at 140 g/ha [2, 12]: 85 to 94%; pest or weed control at 70 g/ha [2, 13]: 30 to 44%; pest or weed control at 140 g/ha [2, 13]: 0 to 29%; pest or weed control at 70 g/ha [2, 14]: 85 to 94%; pest or weed control at 140 g/ha [2, 14]: 85 to 94%; pest or weed control at 70 g/ha [2, 15]: 95 to 100%; pest or weed control at 140 g/ha [2, 15]: 95 to 100%; pest or weed control at 70 g/ha [2, 16]: 30 to 44%; pest or weed control at 140 g/ha [2, 16]: 45 to 59%; pest or weed control at 70 g/ha [2, 17]: 60 to 74%; pest or weed control at 140 g/ha [2, 17]: 60 to 74%
COC(=O)c1nc(-c2cc(F)c(C(F)(F)F)cc2F)c(F)c(N)c1Cl [Compound 144]	85 to 94%	95 to 100%	95 to 100%	95 to 100%	85 to 94%	95 to 100%	85 to 94%	95 to 100%	75 to 84%	85 to 94%	85 to 94%	95 to 100%	75 to 84%	85 to 94%	124 to 126 °C	85 to 94%	95 to 100%	60 to 74%	75 to 84%	45 to 59%	pest or weed control at 140 g/ha [2, 12]: 75 to 84%; pest or weed control at 70 g/ha [2, 13]: 0 to 29%; pest or weed control at 140 g/ha [2, 13]: 0 to 29%; pest or weed control at 70 g/ha [2, 14]: 60 to 74%; pest or weed control at 140 g/ha [2, 14]: 75 to 84%; pest or weed control at 70 g/ha [2, 15]: 75 to 84%; pest or weed control at 140 g/ha [2, 15]: 85 to 94%; pest or weed control at 70 g/ha [2, 16]: 60 to 74%; pest or weed control at 140 g/ha [2, 16]: 75 to 84%; pest or weed control at 70 g/ha [2, 17]: 60 to 74%; pest or weed control at 140 g/ha [2, 17]: 75 to 84%
